# Where a SMILES comes first, the peptide text is derived from it. [ ]: non-standard residue; d: D form. The star is where a group is joined. DOTA = O=C(O)CN1CCN(CC(=O)O)CCN(CC(=O)*)CCN(CC(=O)O)CC1; 1Nal = N[C@@H](Cc1cccc2ccccc12)C(=O)O; NMeNle = CCCC[C@H](NC)C(=O)O
# Legend:
# [1] = stability in vivo (radio-HPLC of blood sample); conditions: BALB/c mice, i.v.
# Experimental: To further characterise the stability of the radiolabelled peptidomimetics in vivo, metabolic studies were carried out in 5-6-week-old female BALB/c mice (Charles River, Sulzfeld, Germany) injected intravenously with the ^111In- and […] peptidomimetics. All animal experiments were conducted in compliance with the Austrian animal protection laws and with the approval of the Austrian Ministry of Science. To allow monitoring of the metabolites by radio-HPLC, mice were injected with a higher amount of radioactivity (5-15 MBq ^111In and 20-40 MBq ^177Lu, corresponding to 1-2 nmol total peptide) through a lateral tail vein and euthanized by cervical dislocation 10 or 30 min post injection (p.i.). A sample of blood was collected and the degradation was assessed by radio-HPLC.
# serum proteins = assay: protein binding to serum proteins (Sephadex G-50 size-exclusion chromatography); type: in vitro ADME; conditions: 37° C.; for fraction unbound at 4 h, 500 pmol/mL / fraction unbound at 24 h, 500 pmol/mL: fresh human serum; for fraction unbound at 4 h, 500 pmol/mL: read-out: Percentage of radioligand bound to serum proteins after 4 h incubation (converted); for fraction unbound at 24 h, 500 pmol/mL: read-out: Percentage of radioligand bound to serum proteins after 24 h incubation (converted); for Percentage of radioligand bound to serum proteins after 24 h incubation: human serum
# Experimental: Additionally, protein binding to serum proteins was investigated. For this purpose the ^111In-labelled peptidomimetics were incubated in duplicates in fresh human serum at 37° C. (500 pmol/mL) and analyzed after 4 and 24 h by Sephadex G-50 size-exclusion chromatography (GE Healthcare Illustra, Little Chalfont, UK). The percentage of protein binding was determined by measuring the column and the eluate in a 2480 Wizard 2 automatic gamma-counter (Perkin Elmer Life Sciences and Analytical Sciences, Turku, F).
# [2] = biodistribution: uptake in normal tissues; type: in vivo, athymic BALB/c nude mice
# Experimental: Biodistribution studies evaluating the tumour uptake of the radiolabelled inventive CCK2R targeting peptide analogues were performed in 7-week-old female athymic BALB/c nude mice (Charles River, Sulzfeld, Germany). All animal experiments were conducted in compliance with the Austrian animal protection laws and with the approval of the Austrian Ministry of Science. For the induction of tumour xenografts, A431-CCK2R and A431-mock cells were injected subcutaneously in the right and left flank respectively (2 million cells in 200 μl). When tumours had reached a size of approximately 0.2 ml biodistribution studies were carried out. Groups of 4 mice were injected intravenously via a lateral tail vein with the peptidomimetics of the present invention, labelled with ^111In (approximately 0.2 MBq and 0.02 nmol peptidomimetic), with ^68Ga (approximately 0.8 MBq and 0.02-0.03 nmol peptidomimetic), with ^177Lu (approximately 0.5 MBq and 0.02 nmol peptidomimetic) or with ^99mTc (approximately 0.3 MBq and 0.02 nmol peptidomimetic). After a time period of 1 or 4 h post-injection (p.i.) the animals were sacrificed by cervical dislocation, tumours and other tissues (blood, lung, heart, muscle, bone, spleen, intestine, liver, kidneys, stomach, pancreas) were removed, weighed, and their radioactivity measured in the gamma counter. Results were expressed as percentage of injected activity per gram tissue (% IA/g) and tumour to organ activity ratios were calculated from the activity measured in the dissected tissues. In FIG. 4 the results of the biodistribution studies at 4 h p.i. are summarized for the ^111In-labelled peptidomimetics of the present invention in comparison with ^111In-DOTA-MGS1 and ^111In-DOTA-MGS4 (Klingler M et al., Eur J Nucl Med Mol Imaging 2017, 44: S228). In FIG. 5 the results for the model peptidomimetics of the present invention, DOTA-MGS5 and HYNIC-MGS5, radiolabelled with different radiometals are shown for different time points of 1 or 4 h p.i. […] The uptake in A431-mock tumour xenografts with values <1% IA/g was very low confirming the high receptor-specific tumour uptake. […] A combination of high stability and increased protein binding in vivo seems therefore to result in an optimal protection of the radioligand against enzymatic degradation in blood allowing reaching an extremely high tumour uptake.
# [3] = CCK2R expressing organ, 1 or 4 h p.i.
intact radioligand present in the blood at 10 min p.i. [1] [%],"fraction unbound at 4 h, 500 pmol/mL (serum proteins)","fraction unbound at 24 h, 500 pmol/mL (serum proteins)",Structure (SMILES),intact radioligand present in the blood at 30 min p.i. [1] [%],also measured
88.4±0.4,0.683,0.654,"CCCC[C@@H](C(=O)N[C@@H](CC(=O)O)C(=O)N[C@@H](Cc1ccc2ccccc2c1)C(N)=O)N(C)C(=O)[C@H](Cc1c[nH]c2ccccc12)NC(=O)CNC(=O)[C@H](Cc1ccc(O)cc1)NC(=O)[C@H](C)NC(=O)[C@@H](CCC(=O)O)NC(=O)CN1CCN(CC(=O)O)CCN(CC(=O)O)CCN(CC(=O)O)CC1 [^111In-DOTA-MGS5-2, metal not drawn]",–,Percentage of radioligand bound to serum proteins after 24 h incubation (serum proteins): ~30%
–,–,–,"CCCC[C@@H](C(=O)N[C@@H](CC(=O)O)C(=O)N[C@@H](Cc1cccc2ccccc12)C(N)=O)N(C)C(=O)[C@H](Cc1c[nH]c2ccccc12)NC(=O)CNC(=O)[C@H](Cc1ccc(O)cc1)NC(=O)[C@H](C)NC(=O)[C@@H](CCC(=O)O)NC(=O)c1ccc(NN)nc1 [^99mTc-HYNIC-MGS5, metal not drawn]",–,"kidney uptake ([2]; 1 or 4 h p.i. (111In-labelled series: 4 h p.i.)): 8 % IA/g; uptake in pancreas [2, 3]: 7 % IA/g; uptake in stomach [2, 3]: 13 % IA/g"
–,0.8,0.712,"CSCC[C@H](NC(=O)[C@H](Cc1c[nH]c2ccccc12)NC(=O)CNC(=O)[C@H](Cc1ccc(O)cc1)NC(=O)[C@H](C)NC(=O)[C@@H](CCC(=O)O)NC(=O)CN1CCN(CC(=O)O)CCN(CC(=O)O)CCN(CC(=O)O)CC1)C(=O)N[C@@H](CC(=O)O)C(=O)N[C@@H](Cc1cccc2ccccc12)C(N)=O [^111In-DOTA-MGS1, ^111In-DOTA-DGlu-Ala-Tyr-Gly-Trp-Met-Asp-1Nal-NH2, metal not drawn, reference compound] ({DOTA}-[dE]AYGWMD[1Nal]-NH2)",–,–
85.9,–,–,"CCCC[C@@H](C(=O)N[C@@H](CC(=O)O)C(=O)N[C@@H](Cc1cccc2ccccc12)C(N)=O)N(C)C(=O)[C@H](Cc1c[nH]c2ccccc12)NC(=O)CNC(=O)[C@H](Cc1ccc(O)cc1)NC(=O)[C@H](C)NC(=O)[C@@H](CCC(=O)O)NC(=O)CN1CCN(CC(=O)O)CCN(CC(=O)O)CCN(CC(=O)O)CC1 [^177Lu-DOTA-MGS5, metal not drawn]",77.0,–
82.3±1.8,0.433,–,"CCCC[C@@H](C(=O)N[C@@H](CC(=O)O)C(=O)N[C@@H](Cc1cccc2ccccc12)C(N)=O)N(C)C(=O)[C@H](Cc1c[nH]c2ccccc12)NC(=O)CNC(=O)[C@@H]1CCCN1C(=O)[C@H](Cc1ccc(O)cc1)NC(=O)[C@@H](CCC(=O)O)NC(=O)CN1CCN(CC(=O)O)CCN(CC(=O)O)CCN(CC(=O)O)CC1 [^111In-DOTA-MGS10, metal not drawn] ({DOTA}-[dE]YPGW[NMeNle]D[1Nal]-NH2)",–,–
80.0±5.2,–,–,"CCCC[C@@H](C(=O)N[C@@H](CC(=O)O)C(=O)N[C@@H](Cc1cccc2ccccc12)C(N)=O)N(C)C(=O)[C@H](Cc1c[nH]c2ccccc12)NC(=O)CNC(=O)[C@H](Cc1ccc(O)cc1)NC(=O)[C@@H]1CCCN1C(=O)[C@@H](CCC(=O)O)NC(=O)CN1CCN(CC(=O)O)CCN(CC(=O)O)CCN(CC(=O)O)CC1 [^111In-DOTA-MGS8, metal not drawn] ({DOTA}-[dE]PYGW[NMeNle]D[1Nal]-NH2)",–,–
–,–,0.541,"CCCC[C@@H](C(=O)N[C@@H](CC(=O)O)C(=O)N[C@@H](Cc1cccc2ccccc12)C(N)=O)N(C)C(=O)[C@H](Cc1c[nH]c2ccccc12)NC(=O)[C@@H]1CCCN1C(=O)[C@H](Cc1ccc(O)cc1)NC(=O)[C@H](C)NC(=O)[C@@H](CCC(=O)O)NC(=O)CN1CCN(CC(=O)O)CCN(CC(=O)O)CCN(CC(=O)O)CC1 [^111In-DOTA-MGS12, metal not drawn] ({DOTA}-[dE]AYPW[NMeNle]D[1Nal]-NH2)",–,–
–,0.911,0.881,"CCCC[C@@H](C(=O)N[C@@H](CC(=O)O)C(=O)N(C)[C@@H](Cc1ccccc1)C(N)=O)N(C)C(=O)[C@H](Cc1c[nH]c2ccccc12)NC(=O)CNC(=O)[C@H](Cc1ccc(O)cc1)NC(=O)[C@H](C)NC(=O)[C@@H](CCC(=O)O)NC(=O)CN1CCN(CC(=O)O)CCN(CC(=O)O)CCN(CC(=O)O)CC1 [^111In-DOTA-MGS4, ^111In-DOTA-DGlu-Ala-Tyr-Gly-Trp-(N-Me)Nle-Asp-(N-Me)Phe-NH2, metal not drawn, reference compound]",–,Percentage of radioligand bound to serum proteins after 24 h incubation (serum proteins): ~12%
–,–,–,"CSCC[C@H](NC(=O)[C@H](Cc1c[nH]c2ccccc12)NC(=O)CNC(=O)[C@H](Cc1ccc(O)cc1)NC(=O)[C@H](C)NC(=O)[C@@H](CCC(=O)O)NC(=O)[C@@H](CCC(=O)O)NC(=O)[C@@H](CCC(=O)O)NC(=O)[C@@H](CCC(=O)O)NC(=O)[C@@H](CCC(=O)O)NC(=O)[C@@H](CCC(=O)O)NC(=O)CN1CCN(CC(=O)O)CCN(CC(=O)O)CCN(CC(=O)O)CC1)C(=O)N[C@@H](CC(=O)O)C(=O)N[C@@H](Cc1ccccc1)C(N)=O [^177Lu-PP-F11, metal not drawn, reference compound]",5.5,–
82.7±3.3,0.59,0.557,"CCCC[C@@H](C(=O)N[C@@H](CC(=O)O)C(=O)N[C@@H](Cc1cccc2ccccc12)C(N)=O)N(C)C(=O)[C@H](Cc1c[nH]c2ccccc12)NC(=O)CNC(=O)[C@H](Cc1ccc(O)cc1)NC(=O)[C@H](C)NC(=O)[C@@H](CCC(=O)O)NC(=O)CN1CCN(CC(=O)O)CCN(CC(=O)O)CCN(CC(=O)O)CC1 [^111In-DOTA-MGS5, metal not drawn]",–,–
98.4±0.1,0.681,0.602,"CCCC[C@@H](C(=O)N[C@@H](CC(=O)O)C(=O)N(C)[C@@H](Cc1cccc2ccccc12)C(N)=O)N(C)C(=O)[C@H](Cc1c[nH]c2ccccc12)NC(=O)CNC(=O)[C@H](Cc1ccc(O)cc1)NC(=O)[C@H](C)NC(=O)[C@@H](CCC(=O)O)NC(=O)CN1CCN(CC(=O)O)CCN(CC(=O)O)CCN(CC(=O)O)CC1 [^111In-DOTA-MGS11, metal not drawn]",–,Percentage of radioligand bound to serum proteins after 24 h incubation (serum proteins): ~30%
80.5,–,–,"CCCC[C@@H](C(=O)N[C@@H](CC(=O)O)C(=O)N[C@@H](Cc1cccc2ccccc12)C(N)=O)N(C)C(=O)[C@H](Cc1c[nH]c2ccccc12)NC(=O)CNC(=O)[C@H](Cc1ccc(O)cc1)NC(=O)[C@@H]1CCCN1C(=O)[C@@H](CCC(=O)O)NC(=O)CN1CCN(CC(=O)O)CCN(CC(=O)O)CCN(CC(=O)O)CC1 [^177Lu-DOTA-MGS8, metal not drawn] ({DOTA}-[dE]PYGW[NMeNle]D[1Nal]-NH2)",56.8,–

Structure (SMILES),intact radioligand present in the blood at 10 min p.i. [1] [%],"fraction unbound at 4 h, 500 pmol/mL (serum proteins)","fraction unbound at 24 h, 500 pmol/mL (serum proteins)",intact radioligand present in the blood at 30 min p.i. [1] [%],also measured
"CCCC[C@H](NC(=O)[C@H](Cc1c[nH]c2ccccc12)NC(=O)CNC(=O)[C@H](Cc1ccc(O)cc1)NC(=O)[C@H](C)NC(=O)[C@@H](CCC(=O)O)NC(=O)[C@@H](CCC(=O)O)NC(=O)[C@@H](CCC(=O)O)NC(=O)[C@@H](CCC(=O)O)NC(=O)[C@@H](CCC(=O)O)NC(=O)[C@@H](CCC(=O)O)NC(=O)CN1CCN(CC(=O)O)CCN(CC(=O)O)CCN(CC(=O)O)CC1)C(=O)N[C@@H](CC(=O)O)C(=O)N[C@@H](Cc1ccccc1)C(N)=O [^177Lu-PP-F11N, metal not drawn, reference compound]",22.3,–,–,12.7,–

# Reference: US12049518B2, “Pharmacokinetics and cholecystokinin-2 receptor (CCK2R) targeting for diagnosis and therapy” (Medizinische Universitat Innsbruck, priority 2017, dated 2024)
